According to patent US12448366B2, “Solid forms of pralsetinib” (Rigel Pharmaceuticals, Inc., priority 2020, dated 2025):
Like-named read-outs stand apart in the source and are kept apart here.

Tests used:
[1] = test system: RET; details: patients with RET-altered NSCLC and MTC; cited from earlier work
[2] = Co-milling co-crystal screening, XRPD; assay type: physicochemical; details: co-milling with freebase
Method: About 30 mg of Compound (I) freebase and 1.05 eq. of co-former were direct weighed into the milling capsule and manually mixed before the addition of 1 volume of solvent (MtBE, MeOAc, or EtOH). Each system was milled once for 30 seconds before solids were collected. Samples of the wet material were taken for XRPD of the ‘wet’ material before drying under active vacuum at 50° C. for 2 hours. Unique patterns were further exposed to 97% R.H. for 24 hours.

[3] = Co-melting co-crystal screening, XRPD; assay type: physicochemical; details: co-melting with pralsetinib freebase, 1.05 eq. co-former
Method: The resulting powder was packed into a 100 μL DSC pan and heated at a rate of 10° C./min to 10° C. above the melting temperature of the lowest melting component. The experiment was isothermally held for 5 min before cooling to room temperature at a rate of 10° C./min. Samples were then taken for XRPD.

[4] = Qualitative water solubility of salts (salt screen); assay type: physicochemical
[5] = Salt screening: XRPD of wet cake, after drying under vacuum at 50° C., after exposure to 97% relative humidity; assay type: physicochemical; details: XRPD; for stability of salt solid form to humidification: 97% (>95%) relative humidity; for stability of salt solid form to drying: vacuum at 50° C.
Method: Stock solutions of counter-ion were prepared in EtOH, MeOH, or EtOAc, depending on solubility. […] The solvent was allowed to evaporate at room temperature over the weekend and then placed at 50° C. under vacuum for 3 hours to remove any remaining solvent. Approximately 25 volumes solvent (0.6 mL) was added to each vial for screening. The three solvents selected were EtOH, EtOAc, and IPA:water (9:1 vol). […] XRPD analysis was done in three stages. XRPD of the wet cake was done for all samples. Unique solids were then left on XRPD plates and dried under vacuum at 50° C. XRPD of unique dry solids was then done. […] The humid environment was generated by placing a beaker of saturated potassium sulfate in water in a sealed container. All XRPD patterns were compared to counter ion XRPD patterns and known free base patterns. Where solids were not of sufficient quantity to isolate, the solvent was evaporated at room temperature, the material dried at 50° C. under active vacuum for 3 hours, and then reslurried at room temperature in either MtBE or IPAc overnight after heating to 45° C. for 30 minutes.

[6] = Competitive slurry experiments between free base solid forms; assay type: physicochemical; details: for competitive slurry in methanol:water: high ratios of water to methanol and lower temperatures
[7] = Dynamic vapor sorption (DVS); assay type: physicochemical; details: for hygroscopicity (words): DVS; for XRPD / form stability after DVS humidity cycling: XRPD before and after DVS; for total mass change by DVS: between 2% and 95% relative humidity
Method: Dynamic Vapor Sorption (DVS) was done using a DVS Intrinsic 1. The sample is loaded into a sample pan and suspended from a microbalance. A typical sample mass for DVS measurement is 25 mg. Nitrogen gas bubbled through distilled water provides the desired relative humidity. A typical measurement comprises the steps: • 1—Equilibrate at 50% RH • 2—50% to 2%. (50%, 40%, 30%, 20%, 10% and 2%) • a. Hold minimum of 5 mins and maximum of 60 minutes at each humidity. The pass criteria is less than 0.002% change • 3—2% to 95% (2%, 10%, 20%, 30%, 40%, 50%, 60%, 70%, 80%, 90%, 95%) • a. Hold minimum of 5 mins and maximum of 60 minutes at each humidity. The pass criteria is less than 0.002% change • 4—95% to 2% (95%, 80%, 70%, 60%, 50%, 40%, 30%, 20%, 10%, 2%) • a. Hold minimum of 5 mins and maximum of 60 minutes at each humidity. The pass criteria is less than 0.002% change • 5—2% to 50% (2%, 10%, 20%, 30%, 40%, 50%) • a. Hold minimum of 5 mins and maximum of 60 minutes at each humidity. The pass criteria is less than 0.002% change High Pressure Liquid Chromatography (HPLC)
Dynamic Vapor Sorption (DVS) was performed using a DVS Intrinsic 1. The samples (12-31 mg) was loaded into a sample pan, suspended from a microbalance and exposed to a humidified stream of nitrogen gas. The sample was held for a minimum of 5 min at each level and only progressed to the next humidity level if there was <0.002% change in weight between measurements (interval: 60 seconds) or 240 min had elapsed. The following program was used: • 1—Equilibration at 50% RH • 2—50% to 2%. (50%, 40%, 30%, 20%, 10% and 2%) • 3—2% to 95% (2%, 10%, 20%, 30%, 40%, 50%, 60%, 70%, 80%, 90%, 95%) • 4—95% to 2% (95%, 80%, 70%, 60%, 50%, 40%, 30%, 20%, 10%, 2%) • 5—2% to 50% (2%, 10%, 20%, 30%, 40%, 50%) High Performance Liquid Chromatography (HPLC)

[8] = Humidity exposure, 75% relative humidity at 40° C. for one week, XRPD; assay type: physicochemical; details: for stability on exposure to 75% relative humidity at 40° C.: one week / 7 days, XRPD
[9] = Solubility in water and simulated fluids (fasted/fed state simulated intestinal fluid, fasted state simulated gastric fluid); assay type: physicochemical
[10] = Thermal treatment in DSC followed by XRPD (Example 2G); assay type: physicochemical
Excerpt: Select solids were used for thermal treatment in DSC. Solids were heated to specified temperature and then cooled back to room temperature for analysis by XRPD.

[11] = DSC and TGA/DSC thermal analysis; assay type: physicochemical; details: exotherm
Method: Differential scanning calorimetry was done using a Mettler Toledo DSC3+. The desired amount of sample is weighed directly in a hermetic aluminum pan with pin-hole. A typical sample mass for is 3-5 mg. A typical temperature range is 30° C. to 300° C. at a heating rate of 10° C. per minute (total time of 27 minutes). Typical parameters for DSC are listed below.
Thermogravimetric analysis and differential scanning calorimetry was done using a Mettler Toledo TGA/DSC3+. The desired amount of sample is weighed directly in a hermetic aluminum pan with pin-hole. A typical sample mass for the measurement is 5-10 mg. A typical temperature range is 30° C. to 300° C. at a heating rate of 10° C. per minute (total time of 27 minutes). Protective and purge gasses are nitrogen (20-30 mL/min and 50-100 mL/min). Typical parameters for DSC/TGA are listed below.
Differential scanning calorimetry was performed using a Mettler Toledo DSC3+. The sample (3-5 mg) was weighed directly in a 40 μL hermetic aluminum pan with pin-hole and analyzed according to the parameters below:
Thermogravimetric analysis and differential scanning calorimetry were performed on the same sample simultaneously using a Mettler Toledo TGA/DSC3+. […] The desired amount of sample (5-10 mg) was weighed directly in a hermetic aluminum pan with pin-hole and analyzed according to the parameters below: […]

## CO[C@]1(C(=O)N[C@@H](C)c2ccc(-n3cc(F)cn3)nc2)CC[C@H](c2nc(C)cc(Nc3cc(C)[nH]n3)n2)CC1 [Compound (I), (cis)-N-((S)-1-(6-(4-fluoro-1H-pyrazol-1-yl)pyridin-3-yl)ethyl)-1-methoxy-4-(4 methyl-6-(5-methyl-1H-pyrazol-3-ylamino)pyrimidin-2-yl)cyclohexanecarboxamide]
[1]
  RET signaling: attenuated
  clinical responses: durable clinical responses
  off target toxicity: without notable off target toxicity

## O.O.O=c1c(O)c(-c2ccc(O)c(O)c2)oc2cc(O)cc(O)c12 [Quercetin Dihydrate]
[2]; solvent MtBE, MeOAc, EtOH
  Wet (XRPD): FB-C + quercetin
[3]
  Dry (XRPD): Am.

## O=C1NS(=O)(=O)c2ccccc21 [Saccharin]
[2]; solvent EtOH
  Wet (XRPD): Am. + 1 peak
[2]; solvent MeOAc
  Wet (XRPD): Am. + trace FB-C
[2]; solvent MtBE
  Wet (XRPD): FB-C + saccharin
[3]
  Dry (XRPD): Am.

## CO[C@]1(C(=O)N[C@@H](C)c2ccc(-n3cc(F)cn3)nc2)CC[C@H](c2nc(C)cc(Nc3cc(C)[nH]n3)n2)CC1 [Solid Form 10-A, pralsetinib]
[4]; listed as salicylate 10-A
  qualitative water solubility: low solubility
[5]; listed as 10-A
  stability of salt solid form to humidification: stable
  stability of salt solid form to drying: stable

## CO[C@]1(C(=O)N[C@@H](C)c2ccc(-n3cc(F)cn3)nc2)CC[C@H](c2nc(C)cc(Nc3cc(C)[nH]n3)n2)CC1 [Solid Form 12-A, pralsetinib]
[4]
  qualitative water solubility: low
[5]; listed as Pattern 12-A
  stability of salt solid form to humidification: stable
  stability of salt solid form to drying: stable

## CO[C@]1(C(=O)N[C@@H](C)c2ccc(-n3cc(F)cn3)nc2)CC[C@H](c2nc(C)cc(Nc3cc(C)[nH]n3)n2)CC1 [Solid Form A, pralsetinib]
[6]
  competitive slurry in methanol:water: converted to Solid Form C
[6]; listed as Pattern A
  competitive slurry in methanol:water: converted to a praletinib free base material characterized by XRPD Pattern C
  Competitive slurry MeOH: water (1:1 vol) at 23 and 50° C.: A converts to C
  Competitive slurry isopropanol, MeOH:MtBE: A stable
[7]
  reversibility of the DVS mass change: reversible
  share of the DVS mass change occurring above 70% relative humidity: 80%
  share of the DVS mass change occurring above 80% relative humidity: 70%
  hygroscopicity (words): hygroscopic
  XRPD / form stability after DVS humidity cycling: stable
  total mass change by DVS: 10.2 wt. %
[7]; listed as solid form A
  hygroscopicity (words): hygroscopic
  XRPD / form stability after DVS humidity cycling: Pattern A
[7]; Table 3E, listed as Pattern A
  DVS Water Mass Change (wt. %): 10.2 wt. %
[7]; between 2-95% relative humidity
  reversible mass change by DVS: about 10%
[7]; between 2 and 95% relative humidity at 25° C.
  water mass gained by dynamic vapor sorption: 10%
[7]; between 15 to 75% relative humidity
  water pick-up: about 2%
[8]
  conversion to hydrate Solid Form C on prolonged / high humidity exposure: did not convert to Solid Form C
  stability on exposure to 75% relative humidity at 40° C.: stable
[8]; listed as Pattern A
  stability on exposure to 75% relative humidity at 40° C.: remained unchanged
[9]
  solubility in simulated gastric fluid: high solubility
  solubility in simulated intestinal fluid: low solubility
  solubility in water: low solubility
[10]
  solid form after a hold at the melting point: did not convert to material with XRPD Pattern H

## CO[C@]1(C(=O)N[C@@H](C)c2ccc(-n3cc(F)cn3)nc2)CC[C@H](c2nc(C)cc(Nc3cc(C)[nH]n3)n2)CC1 [Solid Form B, pralsetinib]
[7]
  total mass change by DVS: 1.4 wt. %
[8]; listed as Pattern B
  conversion to hydrate Solid Form C on prolonged / high humidity exposure: not observed to convert back to hydrate XRPD Pattern C
  stability on exposure to 75% relative humidity at 40° C.: remained unchanged
[10]; 190° C.
  solid form after heating to 190° C.: converted to solid form A

## CO[C@]1(C(=O)N[C@@H](C)c2ccc(-n3cc(F)cn3)nc2)CC[C@H](c2nc(C)cc(Nc3cc(C)[nH]n3)n2)CC1 [Solid Form F, pralsetinib]
[10]; 140° C.
  solid form after heating to 140° C.: converted to solid form B

## COc1cc(C(=O)O)ccc1O [Vanillic Acid]
[2]; solvent EtOH
  Wet (XRPD): FB-C
[2]; solvent MtBE, MeOAc
  Wet (XRPD): FB-C + vanillic acid
[3]
  Dry (XRPD): Am.

## CO[C@]1(C(=O)N[C@@H](C)c2ccc(-n3cc(F)cn3)nc2)CC[C@H](c2nc(C)cc(Nc3cc(C)[nH]n3)n2)CC1 [freebase (Pattern FB-A)]
[7]; glutarate and succinate: between 2% and 90% relative humidity
  DVS Mass Change: 10.2 wt. %
[11]
  Endotherm Onset, event marked (exo): 162.7 (exo) ° C.
[8]; XRPD pattern after exposure
  Stability 40° C./75% RH: Stable

## Urea
[2]; solvent EtOH
  Wet (XRPD): 16-B + FB-C
[2]; solvent EtOH, 97% R.H. for 24 hours
  Humidity (XRPD): 16-B + FB-C
[2]; solvent MtBE, MeOAc
  Wet (XRPD): FB-C + urea
[3]
  Dry (XRPD): FB-A +
